Results taken from patent publication US20030087906A1, “NITROGEN SUBSTITUTED BIARYL PURINE DERIVATIVES AS POTENT ANTIPROLIFERATIVE AGENTS” (priority 2001, published 2003).
“And” between values parts separate entries of the source, which are not always exact repeats. Equal values may be shown once.

What was measured:
HeLa S-3 cells = assay: Inhibition of cell growth of HeLa cells (SRB); type: cell-based, human; conditions: 2 days of treatment, replicate experiments
Protocol: Growth inhibition (GI50) values were measured with HeLa S-3 cells selected for growth on plastic. […] One day later, a control plate was fixed by addition of TCA to 5%. After five rinses with tap water the plate was air dried and stored at 4° C. Test compounds were added to the remaining plates at 10-fold dilutions between 0.01 and 100 μM. Two days later all plates were fixed as described above. Cells were then stained by the addition of 100 μl per well of 0.4% sulforhodamine B (SRB) in 1% acetic acid for 30 min at 4° C. Wells were then quickly rinsed 5×with acetic acid (1%) and allowed to air dry. The SRB was then solubilized by the addition of 100 μl per well of unbuffered 10 mM Tris base. Dye was quantified by measuring absorbance at 490 nm on a Molecular Devices kinetic microplate reader. Growth at each inhibitor concentration relative to the untreated control was calculated according to the following equation: percent growth=100×(T−To)/(C−To), where T was the average optical density (OD) of the test wells after 2 days of treatment, To was the average OD of the wells in the control plate on day 0 and C was the average OD of untreated wells. Plots of percent growth versus inhibitor concentration were used to determine the GI50.

CyclinE/cdk2 = CyclinE/cdk2 (Homo sapiens, UniProt P24941); assay: CyclinE/cdk2 protein kinase assay (histone H1 phosphorylation); conditions: IC50 CyclinE/cdk2, complex immunopurified from HeLa cells; 15 μM ATP; replicate experiments
CyclinA/cdk2 = CyclinA/cdk2 (Homo sapiens, UniProt P24941); assay: CyclinA/cdk2 protein kinase assay (histone H1 phosphorylation); conditions: IC50 CyclinA/cdk2, complex immunopurified from HeLa cells; 15 μM ATP; replicate experiments
[1] = tested on: Tumor Cells in Hollow Fibers; assay: NCI Hollow Fiber Assay (in vivo evaluation)

SMILES | GI50 (HeLa S-3 cells) | GI50 (HeLa S-3 cells; Homo sapiens, HeLa S3, 48 h) [nM] | further results
COC(=O)N[C@H]1CC[C@H](Nc2nc(NCc3ccc(-c4ccccc4)cc3)c3ncn(C(C)C)c3n2)CC1 [Compound 259] | 300 nM and 700 nM | – | –
CC(C)n1cnc2c(NCCc3ccc(-c4ccccc4)cc3)nc(N[C@H]3CC[C@H](N)CC3)nc21 [Compound 239] | – | 6000 | –
CCCNCCNc1nc(NCc2ccc(-c3ccccc3)cc2)c2ncn(C(C)C)c2n1 [Compound 209] | – | 2000 | –
CC(C)n1cnc2c(NCc3ccc(-c4cccc(F)c4)nc3)nc(N[C@H]3CC[C@H](NC(=O)[C@H](C)NC(=O)OC(C)(C)C)CC3)nc21 [Compound 230] | – | 300 | –
CC(C)n1cnc2c(NCc3ccc(-c4ccoc4)cc3)nc(N[C@H]3CC[C@H](N)CC3)nc21 [Compound 164] | – | 200 | –
CC(=O)N[C@H]1CC[C@H](Nc2nc(NCc3ccc(-c4cccc(F)c4)nc3)c3ncn(C(C)C)c3n2)CC1 [Compound 188] | 200 nM and 70 nM | – | –
CC(=O)N[C@H]1CC[C@H](Nc2nc(NCc3ccc(-c4ccc(C)cc4)cc3)c3ncn(C(C)C)c3n2)CC1 [Compound 97] | – | 3000 | IC50 (CyclinE/cdk2): 3000 nM; IC50 (CyclinA/cdk2): > 10000 nM
CC(C)n1cnc2c(NCc3ccc(-c4cccs4)nc3)nc(N[C@H]3CC[C@H](N)CC3)nc21 [Compound 199] | 200 nM and 90 nM | – | –
Cc1ccc(-c2ccc(CNc3nc(N[C@H]4CC[C@H](N)CC4)nc4c3ncn4C(C)C)cc2)s1 [Compound 157] | – | 500 | –
CC(=O)N[C@H]1CC[C@H](Nc2nc(NCc3ccc(-c4ccc(F)cc4)cc3)c3ncn(C(C)C)c3n2)CC1 [Compound 102] | – | – | IC50 (CyclinE/cdk2): 4000 nM; IC50 (CyclinA/cdk2): > 10000 nM
CC(=O)N[C@H]1CC[C@H](Nc2nc(NCc3ccc(-c4cc(C)cs4)cc3)c3ncn(C(C)C)c3n2)CC1 [Compound 161] | 200 nM | – | –
CC(=O)N[C@H]1CC[C@H](Nc2nc(NCCOc3ccc(-c4ccccc4)cc3)c3ncn(C(C)C)c3n2)CC1 [Compound 249] | – | > 10000 | –
CCN(C(C)=O)[C@H]1CC[C@H](Nc2nc(NCc3ccc(-c4ccccc4)cc3)c3ncn(C(C)C)c3n2)CC1 [Compound 267] | 800 nM and 600 nM | – | –
CC(C)n1cnc2c(NCc3ccc(-c4cccc(F)c4)nc3)nc(N[C@H]3CC[C@H](NC(=O)[C@H](C)N)CC3)nc21 [Compound 231] | – | 40 | –
CCCN[C@H]1CC[C@H](Nc2nc(NCc3ccc(-c4cc(C)cs4)cc3)c3ncn(C(C)C)c3n2)CC1 [Compound 162] | – | 200 | –
CCCN[C@H]1CC[C@H](Nc2nc(NCc3ccc(-c4cc(OC)ccc4OC)cc3)c3ncn(C(C)C)c3n2)CC1 [Compound 155] | 800 nM | 500 | –
COc1cccc(-c2ccc(CNc3nc(N[C@H]4CC[C@H](NC(C)=O)CC4)nc4c3ncn4C(C)C)cc2)c1 [Compound 180] | 300 nM | – | –
CC(C)n1cnc2c(NCc3ccc(-c4ccccc4)cc3)nc(N[C@H]3CC[C@H](N4C(=O)CCC4=O)CC3)nc21 [Compound 262] | 300 nM and 200 nM and 500 nM | – | –
CC(C)n1cnc2c(NCc3ccc(-c4ccco4)cc3)nc(N[C@H]3CC[C@H](N)CC3)nc21 [Compound 181] | – | 40 | –
CC(=O)N[C@H]1CC[C@H](Nc2nc(NCc3ccc(-c4ccc(C)s4)cc3)c3ncn(C(C)C)c3n2)CC1 [Compound 158] | 600 nM | – | –
CC(=O)N[C@@H](C)CNc1nc(NCc2ccc(-c3ccccc3)cc2)c2ncn(C(C)C)c2n1 [Compound 108] | – | 3000 | IC50 (CyclinE/cdk2): > 10000 nM; IC50 (CyclinA/cdk2): > 10000 nM
Cc1csc(-c2ccc(CNc3nc(N[C@H]4CC[C@H](N)CC4)nc4c3ncn4C(C)C)cc2)c1 [Compound 160] | – | 200 | –
CC[C@H](CO)Nc1nc(NCc2ccc(-c3ccc(C(O)CO)cc3)cc2)c2ncn(C(C)C)c2n1 (stereo partly drawn) [Compound 34] | – | 7000 | –
CC(=O)N[C@H]1CC[C@H](Nc2nc(NCc3ccc(-c4cccs4)cc3)c3ncn(C(C)C)c3n2)CC1 [Compound 112] | – | – | IC50 (CyclinE/cdk2): 2000 nM; IC50 (CyclinA/cdk2): 2000 nM; Cell Types Killed [1]: OVCAR-3; IP Score ([1]; IP fibers): 18; SC score ([1]; SC fibers): 2
CC(=O)N[C@H]1CC[C@H](Nc2nc(NCc3ccc(-c4ccc(Cl)s4)cc3)c3ncn(C(C)C)c3n2)CC1 [Compound 265] | – | 300 | –

SMILES | GI50 (HeLa S-3 cells) | GI50 (HeLa S-3 cells; Homo sapiens, HeLa S3, 48 h) [nM] | further results
CC(=O)NCCCCNc1nc(NCc2ccc(-c3ccccc3)cc2)c2ncn(C(C)C)c2n1 [Compound 214] | – | 5000 | –
CC(=O)N[C@H]1CC[C@H](Nc2nc(NCc3ccc(-c4ccco4)cc3)c3ncn(C(C)C)c3n2)CC1 [Compound 182] | – | 300 | –
CC(C)n1cnc2c(NCc3ccc(-c4cccc(F)c4)nc3)nc(N[C@H]3CC[C@H](NC(=O)CNC(=O)OC(C)(C)C)CC3)nc21 [Compound 232] | – | 300 | –
CC(=O)N[C@H]1CC[C@H](Nc2nc(NCc3ccc(-c4cccc(C)c4)cc3)c3ncn(C(C)C)c3n2)CC1 [Compound 178] | 200 nM | – | –
CC(C)n1cnc2c(NCc3ccc(-c4ccccc4)cc3)nc(NC[C@H](C)N)nc21 [Compound 107] | – | – | IC50 (CyclinE/cdk2): 2000 nM; IC50 (CyclinA/cdk2): 1000 nM and 4000 nM
CC(=O)N[C@H]1CC[C@H](Nc2nc(NCc3ccc(-c4ccoc4)cc3)c3ncn(C(C)C)c3n2)CC1 [Compound 165] | 200 nM and 100 nM | – | –
CC(Nc1nc(N[C@H]2CC[C@H](N)CC2)nc2c1ncn2C(C)C)c1ccc(-c2ccsc2)cc1 (stereo partly drawn) [Compound 257] | – | 3000 | –
CCCNCCCCNc1nc(NCc2ccc(-c3ccccc3)cc2)c2ncn(C(C)C)c2n1 [Compound 215] | – | 2000 | –
CC(C)n1cnc2c(NCc3cccc(-c4ccsc4)c3)nc(N[C@H]3CC[C@H](NC(=O)OC(C)(C)C)CC3)nc21 [Compound 130] | > 10000 nM | – | –
CCCN(CCC)[C@H]1CC[C@H](Nc2nc(NCc3ccc(-c4cc(C)cc(C)c4)cc3)c3ncn(C(C)C)c3n2)CC1 [Compound 152] | 700 nM and 300 nM | – | –
CC(=O)N[C@H]1CC[C@H](Nc2nc(NCCc3ccc(-c4ccccc4)cc3)c3ncn(C(C)C)c3n2)CC1 [Compound 240] | 8000 nM | – | –
CC(C)n1cnc2c(NCc3ccc(-c4ccc(Cl)s4)cc3)nc(N[C@H]3CC[C@H](N)CC3)nc21 [Compound 264] | 500 nM | 300 | –
CCCN(CCC)CCNc1nc(NCc2ccc(-c3ccccc3)cc2)c2ncn(C(C)C)c2n1 [Compound 210] | – | 3000 | –
CC(C)n1cnc2c(NCCc3ccc(-c4ccsc4)cc3)nc(N[C@H]3CC[C@H](NC(=O)OC(C)(C)C)CC3)nc21 [Compound 242] | > 10000 nM | – | –
CC(=O)N[C@H]1CC[C@H](Nc2nc(NCc3ccc(-c4ccco4)nc3)c3ncn(C(C)C)c3n2)CC1 [Compound 206] | 200 nM | – | –
CCCN[C@H]1CC[C@H](Nc2nc(NCc3ccc(-c4cc(C)cc(C)c4)cc3)c3ncn(C(C)C)c3n2)CC1 [Compound 151] | 600 nM | 800 | –
CC(C)n1cnc2c(NCc3ccc(-c4cccc(Cl)c4)cc3)nc(N[C@H]3CC[C@H](N)CC3)nc21 [Compound 109] | – | – | IC50 (CyclinE/cdk2): 100 nM; IC50 (CyclinA/cdk2): 600 nM
CC[C@H](CO)Nc1nc(NCc2ccc(-c3cccc(N)c3)cc2)c2ncn(C(C)C)c2n1 [Compound 36] | – | 20000 | –
CC(C)n1cnc2c(NCc3ccc(I)cc3)nc(N[C@H]3CC[C@H](N)CC3)nc21 [Compound 11] | – | – | IC50 (CyclinE/cdk2): 70 nM; IC50 (CyclinA/cdk2): 200 nM
CCCN[C@H]1CC[C@H](Nc2nc(NCCOc3ccc(-c4ccccc4)cc3)c3ncn(C(C)C)c3n2)CC1 [Compound 250] | 6000 nM | – | –
CC(C)n1cnc2c(NCc3ccc(-c4cccc(F)c4)nc3)nc(N[C@H]3CC[C@H](N)CC3)nc21 [Compound 187] | 30 nM | 50 | –
CC(C)n1cnc2c(NCc3ccc(-c4cccc(F)c4)nc3)nc(N[C@H]3CC[C@H](NC(=O)CN)CC3)nc21 [Compound 233] | – | 500 | –
CC(C)n1cnc2c(NCc3cccc(-c4ccccc4)c3)nc(N[C@H]3CC[C@H](NC(=O)OC(C)(C)C)CC3)nc21 [Compound 133] | > 10000 nM | – | –
CC(C)n1cnc2c(NCc3ccc(-c4ccccc4)cc3)nc(N[C@H]3CC[C@H](NC(=O)C4CC4)CC3)nc21 [Compound 261] | 300 nM | – | –
CN1CC[C@H](c2c(O)cc(O)c3c(=O)cc(-c4ccccc4Cl)oc23)[C@H](O)C1 [Flavopiridol, reference compound] | – | 180 | –
